In BindingDB's records for doi:10.1016/s0960-894x(03)00330-5 (The University of Georgia, 2003):
pEC50: −log10 of the molar value.

Columns and labels:
[1] = In vitro antiviral activity against HIV-1 Reverse transcriptase wild type
[2] = In vitro antiviral activity against HIV-1 Reverse transcriptase M184V mutant

Compound | pEC50 [1] | pEC50 [2]
Cc1cn([C@H]2C=C[C@@H](CO)O2)c(=O)[nH]c1=O [2',3'-didehydro-3'-deoxythymidine] | 6.35 | 6.30
Nc1nc(=O)n([C@@H]2C=C[C@H](CO)O2)cc1F [ACH-126443] | 6.74 | 6.85
Nc1ccn([C@@H]2CS[C@H](CO)O2)c(=O)n1 [Epivir] | 7.38 | < 4.30
